Broadly, the GI50 is the concentration giving 50% growth inhibition.

For test [1], the system named is HOS. The test is described as follows: Antiproliferative activity against human HOS cells by SRB assay. In kind it is functional. A general note: Sulforhodamine B stains cellular protein and so reports cell mass.
Test [2] has as its system HeLa. Description: Antiproliferative activity against human HeLa cells by SRB assay. In kind it is functional.

`C=CC[C@@H]1O[C@H](COCc2ccccc2)[C@@H](OCc2ccccc2)[C@H](OCc2ccccc2)[C@H]1O`: the GI50 came out at 44.1 µM in test [1] and 26.2 µM in test [2].
Regarding `CCC[C@@H]1O[C@H](COCc2ccc3ccccc3c2)[C@@H](OCc2ccc3ccccc3c2)[C@H](OCc2ccc3ccccc3c2)[C@H]1OC(C)=O`, the GI50 in test [1] and in test [2] was more than 50 µM in each case.
For the compound `CC(=O)OC[C@H]1O[C@@H](Cc2ccccc2)[C@H](OC(C)=O)[C@@H](OCc2ccccc2)[C@@H]1OC(C)=O`, the GI50 in test [1] and in test [2] was more than 50 µM each time.
In the case of `CCC[C@H]1O[C@H](COCc2ccccc2)[C@@H](OCc2ccccc2)[C@H](OCc2ccccc2)[C@H]1O`, the 50% growth inhibitory concentration (GI50) came to 23.6 µM in test [1] and 17.4 µM in test [2].
Regarding `O[C@@H]1[C@@H](OCc2ccccc2)[C@H](OCc2ccccc2)[C@@H](COCc2ccccc2)O[C@H]1CC1CC1`, the GI50 in test [1] and in test [2] was more than 50 µM each time.
Take `C=CC[C@@H]1O[C@H](COCc2ccccc2)[C@@H](OCc2ccccc2)[C@H](OCc2ccccc2)[C@H]1OC(C)=O`: the 50% growth inhibitory concentration (GI50) in test [1] is 11 µM; in test [2] it was more than 50 µM.
In the same order, the values of `C=CC[C@@H]1O[C@H](COCc2ccccc2)[C@@H](OCc2ccccc2)[C@H](OCc2ccccc2)[C@H]1OCc1ccccc1` are more than 50 µM and more than 50 µM.
As for `c1ccc(COC[C@H]2O[C@H]3C[C@H]3[C@@H](OCc3ccccc3)[C@@H]2OCc2ccccc2)cc1`, the GI50 in test [1] and in test [2] was more than 50 µM in each case.
Regarding `C[C@@H]1O[C@H](COCc2ccccc2)[C@@H](OCc2ccccc2)[C@H](OCc2ccccc2)C1=O`, the concentration for 50% growth inhibition (GI50) in test [1] and in test [2] was more than 50 µM throughout.
As for `CCCCCCCCCCCCCCCOC[C@H]1O[C@@H](CCC)[C@H](O)[C@@H](OCCCCCCCCCCCCCCC)[C@@H]1OCCCCCCCCCCCCCCC`, the GI50 in test [1] and in test [2] was more than 50 µM throughout.
On to `CC(C)C[C@H]1O[C@H](COCc2ccccc2)[C@@H](OCc2ccccc2)[C@H](OCc2ccccc2)[C@H]1O`, for which the GI50 in test [1] was determined as 44.5 µM; in test [2], 43.9 µM.
Take `CC[C@@H]1O[C@H](COCc2ccccc2)[C@@H](OCc2ccccc2)[C@H](OCc2ccccc2)[C@H]1O`: the GI50 in test [1] was 34.2 µM; in test [2], 19.8 µM.
For `O=C1[C@H](Cc2ccccc2)O[C@H](COCc2ccccc2)[C@@H](OCc2ccccc2)[C@@H]1OCc1ccccc1`, in that order: more than 50 µM and more than 50 µM.
As to `CC(C)C[C@@H]1O[C@H](COCc2ccccc2)[C@@H](OCc2ccccc2)[C@H](OCc2ccccc2)C1=O`, the 50% growth inhibitory concentration (GI50) in test [1] and in test [2] was more than 50 µM throughout.
Take `CC(=O)O[C@@H]1[C@@H](OCc2ccccc2)[C@H](OC(C)=O)[C@@H](COCc2ccccc2)O[C@H]1Cc1ccccc1`: the GI50 in test [1] amounted to 6.1 µM; in test [2], 5.4 µM.
Take `ClC1(Cl)[C@@H]2[C@@H](OCc3ccccc3)[C@H](OCc3ccccc3)[C@@H](COCc3ccccc3)O[C@@H]21`: the GI50 was 1.6 µM in test [1] and more than 50 µM in test [2].
On to `CC(=O)O[C@@H]1[C@@H](OCc2ccccc2)[C@H](OCc2ccccc2)[C@@H](COCc2ccccc2)O[C@@H]1CC(C)C`, for which the GI50 in test [1] and in test [2] was more than 50 µM throughout.
For `CCCC[C@@H]1O[C@H](COCc2ccccc2)[C@@H](OCc2ccccc2)[C@H](OCc2ccccc2)[C@H]1O`, the results for the GI50 in test [1] and in test [2] were 40.1 µM and more than 50 µM, respectively.
For `CCC[C@H]1O[C@H](COCc2ccccc2)[C@@H](OCc2ccccc2)[C@H](OCc2ccccc2)C1=O`, the GI50 in test [1] and in test [2] was more than 50 µM throughout.
Consider `OC[C@@H]1O[C@H](COCc2ccccc2)[C@@H](OCc2ccccc2)[C@H](OCc2ccccc2)[C@H]1O`, for which the values for the GI50 in test [1] and in test [2] were 27.3 µM and 25.8 µM, respectively.
For `OCCC[C@@H]1O[C@H](COCc2ccccc2)[C@@H](OCc2ccccc2)[C@H](OCc2ccccc2)[C@H]1O`, the GI50 in test [1] and in test [2] was more than 50 µM in each case.
For `CCCCCCCCCCCCCCCOC[C@H]1O[C@H](CCC)[C@H](O)[C@@H](OCCCCCCCCCCCCCCC)[C@@H]1OCCCCCCCCCCCCCCC`, the GI50 in test [1] was 29.9 µM; in test [2], 28.7 µM.
As to `CCC[C@@H]1O[C@H](COCc2ccccc2)[C@@H](OCc2ccccc2)[C@H](OCc2ccccc2)[C@@H]1O`, the GI50 in test [1] is more than 50 µM; in test [2], 23.3 µM.
Take `CC[C@H]1O[C@H](COCc2ccccc2)[C@@H](OCc2ccccc2)[C@H](OCc2ccccc2)[C@H]1O`: the GI50 in test [1] and in test [2] was more than 50 µM throughout.
With `CCC[C@H]1O[C@H](COCc2ccc(F)cc2)[C@@H](OCc2ccc(F)cc2)[C@H](OCc2ccc(F)cc2)[C@H]1O`, the GI50 in test [1] is more than 50 µM; in test [2], 5.6 µM.
In the same order, the values of `CCCCOC[C@H]1O[C@@H](CCC)C(=O)[C@@H](OCCCC)[C@@H]1OCCCC` are more than 50 µM and more than 50 µM.
In the same order, the values of `O[C@@H]1[C@@H](OCc2ccccc2)[C@H](OCc2ccccc2)[C@@H](COCc2ccccc2)O[C@H]1Cc1ccccc1` are 29.2 µM and 17.4 µM.
As for `O[C@@H]1[C@@H](OCc2ccccc2)[C@H](OCc2ccccc2)[C@@H](COCc2ccccc2)O[C@H]1CC1CCCCC1`, the GI50 in test [1] stood at 4.4 µM; in test [2], 9.5 µM.
Take `CCC[C@@H]1O[C@H](COCc2ccc3ccccc3c2)[C@@H](OCc2ccc3ccccc3c2)[C@H](OCc2ccc3ccccc3c2)[C@H]1O`: the GI50 in test [1] and in test [2] was more than 50 µM throughout.
`O[C@@H]1[C@@H](O)[C@H](Cc2ccccc2)O[C@H](COCc2ccccc2)[C@H]1OCc1ccccc1`: the figures for the GI50 in test [1] and in test [2] were 33.5 µM and 47.9 µM, respectively.
For `CCC[C@@H]1O[C@H](COCc2ccc(F)cc2)[C@@H](OCc2ccc(F)cc2)[C@H](OCc2ccc(F)cc2)[C@H]1O`, in that order: 17.2 µM and 12.3 µM.
In the same order, the values of `CCC[C@@H]1O[C@H](COCc2ccccc2)[C@@H](OCc2ccccc2)[C@H](OCc2ccccc2)C1=O` are more than 50 µM and more than 50 µM.
Take `C=CC[C@@H]1O[C@H](COCc2ccccc2)[C@@H](OCc2ccccc2)[C@H](OCc2ccccc2)C1=O`: the 50% growth inhibitory concentration (GI50) in test [1] is 7.6 µM; in test [2], more than 50 µM.
For `CCCCOC[C@H]1O[C@@H](CCC)[C@H](O)[C@@H](OCCCC)C1OCCCC` (some centres undefined), in that order: more than 50 µM and more than 50 µM.
In the same order, the values of `CC(C)C[C@@H]1O[C@H](COCc2ccccc2)[C@@H](OCc2ccccc2)[C@H](OCc2ccccc2)[C@@H]1O` are 26.3 µM and 24.6 µM.
In the same order, the values of `O[C@@H]1[C@@H](OCc2ccccc2)[C@H](OCc2ccccc2)[C@@H](COCc2ccccc2)O[C@@H]1CC1CCCCC1` are 20.7 µM and more than 50 µM.
For `O[C@@H]1[C@@H](OCc2ccccc2)[C@H](OCc2ccccc2)[C@@H](COCc2ccccc2)O[C@H]1c1ccccc1`, the concentration for 50% growth inhibition (GI50) in test [1] and in test [2] was more than 50 µM throughout.
Take `CC[C@@H]1O[C@H](COCc2ccccc2)[C@@H](OCc2ccccc2)[C@H](OCc2ccccc2)[C@H]1OC(C)=O`: the GI50 in test [1] and in test [2] was more than 50 µM in each case.
For the compound `C[C@@H]1O[C@H](COCc2ccccc2)[C@@H](OCc2ccccc2)[C@H](OCc2ccccc2)[C@H]1O`, the concentration for 50% growth inhibition (GI50) in test [1] and in test [2] was more than 50 µM in each case.
For `CC(C)C[C@@H]1O[C@H](COCc2ccccc2)[C@@H](OCc2ccccc2)[C@H](OCc2ccccc2)[C@H]1O`, the 50% growth inhibitory concentration (GI50) was 45.2 µM in test [1] and more than 50 µM in test [2].
As to `CC(=O)O[C@@H]1[C@@H](OC(C)=O)[C@H](Cc2ccccc2)O[C@H](COCc2ccccc2)[C@H]1OC(C)=O`, the GI50 in test [1] and in test [2] was more than 50 µM throughout.
Consider `c1ccc(COC[C@H]2O[C@@H]3C[C@@H]3[C@@H](OCc3ccccc3)[C@@H]2OCc2ccccc2)cc1`, for which the GI50 in test [1] and in test [2] was more than 50 µM each time.
With `CC[C@@H]1O[C@H](COCc2ccccc2)[C@@H](OCc2ccccc2)[C@H](OCc2ccccc2)C1=O`, the 50% growth inhibitory concentration (GI50) in test [1] was 4.3 µM; in test [2], more than 50 µM.
As for `c1ccc(COC[C@H]2O[C@@H](Cc3ccccc3)[C@H](OCc3ccccc3)[C@@H](OCc3ccccc3)[C@@H]2OCc2ccccc2)cc1`, the GI50 in test [1] and in test [2] was more than 50 µM each time.
For `O[C@H]1CO[C@H](COCc2ccccc2)[C@@H](OCc2ccccc2)[C@@H]1OCc1ccccc1`, the GI50 in test [1] is 37.9 µM; in test [2] it was more than 50 µM.
As for `CCC[C@@H]1O[C@H](COCc2ccccc2)[C@@H](OCc2ccccc2)[C@H](OCc2ccccc2)[C@H]1O`, the GI50 in test [1] came to 38.6 µM; in test [2], 18.9 µM.
With `CC(=O)O[C@@H]1[C@@H](OCc2ccccc2)[C@H](OCc2ccccc2)[C@@H](COCc2ccccc2)O[C@H]1C`, the concentration for 50% growth inhibition (GI50) in test [1] is 8.8 µM; in test [2], more than 50 µM.
In the same order, the values of `CCCCC[C@@H]1O[C@H](COCc2ccccc2)[C@@H](OCc2ccccc2)[C@H](OCc2ccccc2)C1=O` are more than 50 µM and more than 50 µM.
In the same order, the values of `CCC[C@@H]1O[C@H](CO)[C@@H](O)[C@H](O)[C@H]1O` are more than 50 µM and more than 50 µM.
For `OC[C@H]1O[C@@H](Cc2ccccc2)[C@H](O)[C@@H](OCc2ccccc2)[C@@H]1OCc1ccccc1`, in that order: 31.6 µM and 38 µM.
`c1ccc(COC[C@H]2OCC[C@@H](OCc3ccccc3)[C@@H]2OCc2ccccc2)cc1`: the GI50 turned out to be 22.2 µM in test [1] and 33.3 µM in test [2].
In the same order, the values of `OCC[C@@H]1O[C@H](COCc2ccccc2)[C@@H](OCc2ccccc2)[C@H](OCc2ccccc2)[C@H]1O` are 39.7 µM and 30.2 µM.

These data come from ChEMBL document CHEMBL1139968, “Cytotoxic effects of C-glycosides in HOS and HeLa cell lines” (2007).
